In patent publication US4155931A, “Ureylene phenylene anionic naphthalenesulfonic acids” (American Cyanamid Company, priority 1978, dated 1979):
Counter-ions that a name gives are not always drawn.

How the values were obtained:
[1] = target: activated human C1 (Homo sapiens, UniProt P09871); assay: Test Code 026 (C1 inhibitor): ability of activated human C1 to destroy fluid phase human C2 in the presence of C4; assay type: biochemical; details: two-fold serial dilution assay, higher well number indicates higher activity
Excerpt: (§1) An active inhibitor protects C2 from C1 and C4; (ii) Test Code 035 (C3-C9 inhibitor)--This test determines the ability of the late components of human complement (C3-C9) to lyse EAC 142 in the presence of appropriate dilutions of the test compound. An active inhibitor protects EAC 142 from lysis by human C3-C9; (iii) Test Code 036 (C-Shunt inhibitor)--In this test human erythrocytes rendered fragile are lysed in autologous serum via the shunt pathway activated by cobra venom factor in the presence of appropriate dilutions of the test compound. Inhibition of the shunt pathway results in failure of lysis; (iv) Forssman Vasculitis Test--Here, the well known complement dependent lesion, Forssman vasculitis, is produced in guinea pigs by intradermal injection of rabbit anti-Forssman antiserum. The lesion is measured in terms of diameter, edema and hemorrhage and the extent to which a combined index of these is inhibited by prior intraperitoneal injection of the test compound at 200 mg/kg is then reported, unless otherwise stated; (v) Forssman Shock Test--Lethal shock is produced in guinea pigs by an i.v. injection of anti-Forssman antiserum and the harmonic mean death time of treated guinea pigs is compared with that of simultaneous controls; (vi) Complement Level Reduction Test--In this test, the above dosed guinea pigs, or others, are bled for serum and the complement level is determined in undiluted serum by the capillary tube method of U.S. Pat. No. 3,876,376 and compared to undosed control guinea pigs; and (vii) Cap 50 Test--Here, appropriate amounts of the test compound are added to a pool of guinea pig serum in vitro, after which the undiluted serum capillary tube assay referred to above is run. The concentration of compound inhibiting 50% is reported.
(§2) **Activity in wells a serial dilution assay. Higher well number indicates
(§3) higher activity. The serial dilutions are two-fold.

[2] = system: late components of human complement (C3-C9); assay: Test Code 035 (C3-C9 inhibitor, C-Late): lysis of EAC 142 by late components of human complement; assay type: cell-based; details: two-fold serial dilution assay
Excerpt: as §1, §2, §3

[3] = system: shunt pathway; assay: Test Code 036 (C-Shunt inhibitor): lysis of fragile human erythrocytes in autologous serum via shunt pathway activated by cobra venom factor; assay type: cell-based; details: Table II (intermediates); two-fold serial dilution assay
Excerpt: as §1, §2, §3

[4] = reported in literature; cited from earlier work
[5] = system: complement system; details: reported in literature or known; cited from earlier work
[6] = system: whole complement; assay: Complement Level Reduction Test: whole complement in serum of dosed guinea pigs, capillary tube assay; assay type: in vivo; details: guinea pig, intraperitoneal, 200 mg/kg
[7] = system: total hemolytic complement activity of human serum; details: in vitro and in vivo, reported in literature; cited from earlier work
[8] = Table I, higher well number indicates higher activity

Compound	Cl 026 (C1 inhibitor) ([1]; Table II (intermediates))	C-Late 035 (C3-C9 inhibitor) ([2]; Table II (intermediates))	Shunt Inhibition 036 [3]	Cl 026 (C1 inhibitor) ([1]; Table I)	C-Late 035 (C3-C9 inhibitor) [2, 8]	also measured
Cc1ccc(C(=O)Nc2cc(C(=O)O)cc(C(=O)Nc3ccc(S(=O)(=O)O)c4cc(S(=O)(=O)O)cc(S(=O)(=O)O)c34)c2)cc1N [5-(3-Amino-p-toluamido)-N-(4,6,8-trisulfo-1-naphthyl)isophthalamic acid, trisodium salt]	+3 Wells	N	N	–	–	–
Cc1ccc(S(=O)(=O)Nc2ccc(S(=O)(=O)[O-])c3cc(S(=O)(=O)[O-])cc(S(=O)(=O)[O-])c23)cc1NC(=O)c1cc(N)cc(C(=O)O)c1.[Na+].[Na+].[Na+] [5-Amino-2'-methyl-5'-(4,6,8-trisulfo-1-naphthylsulfamoyl)-isophthalanilic acid, trisodium salt]	+2 Wells	N	N	–	–	–
NCCCCCC(=O)O [epsilon-aminocaproic acid]	–	–	–	–	–	use in treatment of hereditary angioneurotic edema [4]: used with success in the treatment of hereditary angioneurotic edema
Cc1ccc(C(=O)Nc2ccc(S(=O)(=O)O)c3cc(S(=O)(=O)O)cc(S(=O)(=O)O)c23)cc1NC(=O)c1cccc(NC(=O)Nc2cccc(C(=O)Nc3cc(C(=O)Nc4ccc(S(=O)(=O)O)c5cc(S(=O)(=O)O)cc(S(=O)(=O)O)c45)ccc3C)c2)c1 [Suramin, reference compound]	–	–	–	+4 Wells	+2 Wells	complement inhibitor / anticomplementary effect [5]: moderately active as a complement inhibitor
Nc1ccc2cc(S(=O)(=O)[O-])cc(O)c2c1N=Nc1ccc(NC(=O)Nc2ccc(N=Nc3c(N)ccc4cc(S(=O)(=O)[O-])cc(O)c34)c(S(=O)(=O)[O-])c2)cc1S(=O)(=O)[O-].[Na+].[Na+].[Na+].[Na+] [chlorazol fast pink, 3,3'-ureylenebis[6-(2-amino-8-hydroxy-6-sulfo-1-naphthylazo)benzenesulfonic acid], tetrasodium salt]	–	–	–	–	–	complement inhibitor / anticomplementary effect [5]: anticomplementary effect
Cc1ccc(NC(=O)c2ccc(N)cc2S(=O)(=O)O)cc1S(=O)(=O)Nc1cc(S(=O)(=O)O)cc2cc(S(=O)(=O)O)cc(S(=O)(=O)O)c12 [8-[5-(4-Amino-2-sulfobenzamido)-o-toluenesulfonamido]-1,3,6-naphthalenetrisulfonic acid, tetrasodium salt]	+4 Wells	N	N	–	–	–
Cc1ccc(C(=O)Nc2ccc(S(=O)(=O)[O-])c3cc(S(=O)(=O)[O-])cc(S(=O)(=O)[O-])c23)cc1NC(=O)c1ccc(NC(=O)Nc2ccc(C(=O)Nc3cc(C(=O)Nc4ccc(S(=O)(=O)[O-])c5cc(S(=O)(=O)[O-])cc(S(=O)(=O)[O-])c45)ccc3C)c(S(=O)(=O)[O-])c2)cc1S(=O)(=O)[O-].[Na+].[Na+].[Na+].[Na+].[Na+].[Na+].[Na+].[Na+] [8,8'-[Ureylenebis[[(2-sulfo-4,1-phenylenecarbonyl)imino]-(4-methyl-3,1-phenylenecarbonyl)imino]]di-1,3,5-naphthalenetrisulfonic acid, octasodium salt]	–	–	–	+3 Wells	+1 Wells	–
Cc1cc(C)c(S(=O)(=O)Nc2cc(S(=O)(=O)[O-])cc3cc(S(=O)(=O)[O-])cc(S(=O)(=O)[O-])c23)cc1NC(=O)c1ccc(NC(=O)Nc2ccc(C(=O)Nc3cc(S(=O)(=O)Nc4cc(S(=O)(=O)[O-])cc5cc(S(=O)(=O)[O-])cc(S(=O)(=O)[O-])c45)c(C)cc3C)c(S(=O)(=O)[O-])c2)cc1S(=O)(=O)[O-].[Na+].[Na+].[Na+].[Na+].[Na+].[Na+].[Na+].[Na+] [8,8'-[Ureylenebis[(2-sulfo-4,1-phenylenecarbonyl)imino(4,6-dimethyl-3,1-phenylenesulfonyl)imino]]di-1,3,6-naphthalenetrisulfonic acid, octasodium salt]	–	–	–	+5 Wells	+2 Wells	–
Cc1ccc(NC(=O)c2ccc(NC(=O)Nc3ccc(C(=O)Nc4ccc(C)c(S(=O)(=O)Nc5cc(S(=O)(=O)O)cc6cc(S(=O)(=O)O)cc(S(=O)(=O)O)c56)c4)c(S(=O)(=O)O)c3)cc2S(=O)(=O)O)cc1S(=O)(=O)Nc1cc(S(=O)(=O)O)cc2cc(S(=O)(=O)O)cc(S(=O)(=O)O)c12 [8,8'-[Ureylenebis[[(2-sulfo-4,1-phenylenecarbonyl)imino](2-methyl-4,1-phenylene)sulfonyl]imino]]di-1,3,6-naphthalenetrisulfonic acid, octasodium salt]	–	–	–	+4 Wells	+2 Wells	–
Cc1ccc(C(=O)Nc2ccc(S(=O)(=O)O)c3cc(S(=O)(=O)O)cc(S(=O)(=O)O)c23)cc1NC(=O)c1cc(NC(=O)Nc2cc(C(=O)O)cc(C(=O)Nc3cc(C(=O)Nc4ccc(S(=O)(=O)O)c5cc(S(=O)(=O)O)cc(S(=O)(=O)O)c45)ccc3C)c2)cc(C(=O)O)c1 [5,5"-Ureylenebis[2'-methyl-5"-[(4,6,8-trisulfo-1-naphthyl)carbamoyl]isophthalanilic acid], octasodium salt]	–	–	–	+5 Wells	+2 Wells	% Inhibition ([6]; 30 minutes): -17%; % Inhibition ([6]; 60 minutes): -50%; % Inhibition ([6]; 120 minutes): -57%
Nc1ccc(C(=O)Nc2cccc(S(=O)(=O)Nc3cc(S(=O)(=O)O)cc4cc(S(=O)(=O)O)cc(S(=O)(=O)O)c34)c2)c(S(=O)(=O)O)c1 [8-[N^3-(4-Amino-2-sulfobenzoyl)metanilamido]-1,3,6-naphthalenetrisulfonic acid, tetrasodium salt]	+3 Wells	N	N	–	–	–
Cc1ccc(C(=O)Nc2ccc(S(=O)(=O)O)c3cc(S(=O)(=O)O)cc(S(=O)(=O)O)c23)cc1NC(=O)c1ccc(N)cc1S(=O)(=O)O [8-[3-(4-Amino-2-sulfobenzamido)-p-toluamido]-1,3,5-naphthalenetrisulfonic acid, tetrasodium salt]	+2 Wells	N	N	–	–	–
heparin	–	–	–	–	–	complement inhibitor / anticomplementary effect [5]: anticomplementary effect
Cc1ccc(C(=O)Nc2cc(C(=O)O)cc(C(=O)Nc3ccc(S(=O)(=O)O)c4cc(S(=O)(=O)O)cc(S(=O)(=O)O)c34)c2)cc1NC(=O)Nc1cc(C(=O)Nc2cc(C(=O)O)cc(C(=O)Nc3ccc(S(=O)(=O)O)c4cc(S(=O)(=O)O)cc(S(=O)(=O)O)c34)c2)ccc1C [5,5'-Ureylenebis[(4-methyl-3,1-phenylenecarbonyl)imino]bis[N-(4,6,8-trisulfo-1-naphthyl)isophthalamic acid], hexasodium slt]	–	–	–	+5 Wells	+2 Wells	–
pentosan-polysulfoester	–	–	–	–	–	anticomplementary activity of human serum (reduction in total hemolytic complement activity) [7]: anticomplementary activity of human serum
NC[C@H]1CC[C@H](C(=O)O)CC1 [tranexamic acid]	–	–	–	–	–	use in treatment of hereditary angioneurotic edema [4]: used with success in the treatment of hereditary angioneurotic edema
Cc1ccc(C(=O)Nc2ccc(S(=O)(=O)[O-])c3cc(S(=O)(=O)[O-])cc(S(=O)(=O)[O-])c23)cc1NC(=O)c1cc(NC(=O)Nc2cc(C(=O)O)cc(C(=O)Nc3cc(C(=O)Nc4ccc(S(=O)(=O)[O-])c5cc(S(=O)(=O)[O-])cc(S(=O)(=O)[O-])c45)ccc3C)c2)cc(C(=O)O)c1.[Na+].[Na+].[Na+].[Na+].[Na+].[Na+] [5,5"-Ureylenebis[2'-methyl-5'-[(4,6,8-trisulfo-1-naphthyl)carbamoyl]isophthalanilic acid], hexasodium salt]	–	–	–	+5 Wells	+2 Wells	–
Cc1ccc(C(=O)Nc2ccc(S(=O)(=O)O)c3cc(S(=O)(=O)O)cc(S(=O)(=O)O)c23)cc1NC(=O)c1cc(N)cc(C(=O)O)c1 [5-Amino-2'-methyl-5'-[(4,6,8-trisulto-1-naphthyl)carbamoyl]isophthalanilic acid, trisodium salt]	+2 Wells	N	N	–	–	–
